Several values for one entry are separate records, joined by “and”; a condition that tells them apart may be missing. Equal entries are not always repeated.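 96-well plates; 48 h exposure; 5 concentrations. Endpoints by linear interpolation between flanking doses. Not reached: highest tested concentration assigned. GI50 marks 50% less growth. TGI marks complete inhibition of growth.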
Assays:
Assay in all cases: NCI-60 cell line screen, 48 h
HCC-2998 colon = tested on: HCC-2998 colon
SNB-78 CNS = tested on: SNB-78 CNS
SN12C renal = tested on: SN12C renal
HL-60(TB) leukemia = tested on: HL-60(TB) leukemia
HT29 colon = tested on: HT29 colon
UACC-257 melanoma = tested on: UACC-257 melanoma
SR leukemia = tested on: SR leukemia
SK-MEL-5 melanoma = tested on: SK-MEL-5 melanoma
DMS 114 small cell lung = tested on: DMS 114 small cell lung
NCI-H522 lung = tested on: NCI-H522 lung

Compound | TGI (HCC-2998 colon) | TGI (SNB-78 CNS) | TGI (SN12C renal) | TGI (HL-60(TB) leukemia) | TGI (HT29 colon) | TGI (UACC-257 melanoma) | TGI (SR leukemia) | TGI (SK-MEL-5 melanoma) | TGI (DMS 114 small cell lung) | TGI (NCI-H522 lung) | GI50 (HCC-2998 colon) | GI50 (SNB-78 CNS) | GI50 (SN12C renal) | GI50 (HT29 colon) | GI50 (NCI-H522 lung) | GI50 (SK-MEL-5 melanoma) | GI50 (DMS 114 small cell lung) | GI50 (HL-60(TB) leukemia) | GI50 (UACC-257 melanoma) | GI50 (SR leukemia)
COc1ccc2c(c1)[C@@H](NC(C)=O)CCc1cc(OC)c(OC)c(OC)c1-2 | 13 µM | > 100 µM | > 100 µM | < 0.0142 µM | 0.124 µM | > 100 µM | > 90.2 µM | 0.0298 µM | 0.366 µM | – | – | – | – | – | – | – | – | – | – | –
O=C(O)/C=C/c1ccc(O)c(O)c1 | > 100 µM | > 100 µM | > 100 µM | > 100 µM | > 100 µM | > 100 µM | – | > 100 µM | > 100 µM | > 100 µM | – | – | – | – | – | – | – | – | – | –
Cc1c(C(Cc2ccccc2N(C)C(=O)/C=C\C(=O)O)c2c[nH]c3ccccc23)c2ccccc2n1C (stereo not drawn) | 30.9 µM | 53.8 µM | 30 µM | 23.9 µM | 30.8 µM | 31.5 µM | 46.7 µM | 29.8 µM | 27.5 µM | 28.6 µM | – | – | – | – | – | – | – | – | – | –
COc1ccc(C(=O)C(C(=O)CCC(=O)Nc2ccc(Cl)c(Cl)c2)c2ccc(OC)cc2)cc1 (stereo not drawn) | > 100 µM | > 100 µM | > 100 µM | > 100 µM | > 100 µM | > 100 µM | – | > 100 µM | > 100 µM | > 100 µM | – | – | – | – | – | – | – | – | – | –
COc1ccc(C2COc3c(ccc(OC)c3OC)C2=O)cc1OC (stereo not drawn) | > 100 µM | > 100 µM | > 100 µM | > 100 µM | > 100 µM | > 100 µM | > 100 µM | > 100 µM | > 100 µM | > 100 µM | – | – | – | – | – | – | – | – | – | –
CC[C@@]1(OP(=O)(O)O)C(=O)OCc2c1cc1n(c2=O)Cc2cc3ccccc3nc2-1 | 6.06 µM and 8.45 µM | > 100 µM | 6.08 µM and 0.619 µM | 0.188 µM | – | 2.58 µM and 3.86 µM | 0.0566 µM | 0.458 µM and 0.46 µM | 0.509 µM and 3.37 µM | 3 µM and 1.88 µM | 1.57 µM | 3.81 µM | 0.024 µM | 0.428 µM | 0.0688 µM | 0.126 µM | 0.0678 µM | – | – | –
Cc1ccc(S(=O)c2ccccc2[N+](=O)[O-])cc1 (stereo not drawn) | > 100 µM | > 100 µM | > 100 µM | > 100 µM | > 100 µM | > 100 µM | > 100 µM | > 100 µM | > 100 µM | > 100 µM | – | – | – | – | – | – | – | – | – | –
CN(C)CC1CC/C(=C\c2ccc(Cl)c(Cl)c2)C1=O (stereo not drawn) | > 58.5 µM | > 78.8 µM | > 55.8 µM | 4.68 µM | 54.4 µM | > 60.9 µM | 6.91 µM | > 72.9 µM | > 72.7 µM | 17.7 µM | – | – | – | – | – | – | – | – | – | –
NC1=C(O)c2cccc3cccc(c23)C1=O | > 100 µM | > 100 µM | > 100 µM | > 100 µM | > 100 µM | > 100 µM | – | > 100 µM | > 100 µM | > 100 µM | – | – | – | – | – | – | – | – | – | –
N#CC(C(=O)CCCC(=O)Nc1ccccc1[N+](=O)[O-])c1c(Cl)cccc1Cl (stereo not drawn) | > 100 µM | > 100 µM | > 100 µM | > 100 µM | > 100 µM | > 100 µM | > 100 µM | > 100 µM | > 100 µM | > 100 µM | – | – | – | – | – | – | – | – | – | –
O=S1OC(c2ccccc2)(c2ccccc2)C(c2ccccc2)(c2ccccc2)O1 | > 100 µM | > 100 µM | > 100 µM | > 100 µM | > 100 µM | > 100 µM | > 100 µM | > 100 µM | > 100 µM | > 100 µM | – | – | – | – | – | – | – | – | – | –
Cc1c2cnccc2c(C)c2c1c1ccccc1n2CCOC(=O)c1ccccc1 | 29.8 µM | 85.4 µM | 21 µM | 26 µM | 54.1 µM | 42 µM | 45.9 µM | 38.9 µM | 30.6 µM | 31.1 µM | – | – | – | – | – | – | – | – | – | –
CN(C)CCC(N)(P(=O)([O-])[O-])P(=O)([O-])[O-].N.N.[Pt+2] | > 100 µM | > 100 µM | > 100 µM | > 100 µM | > 100 µM | > 100 µM | > 100 µM | > 100 µM | – | > 100 µM | > 100 µM | > 100 µM | > 100 µM | > 100 µM | > 100 µM | > 100 µM | – | > 100 µM | > 100 µM | > 100 µM
C/C(=N/NC(=O)c1ccccc1S(N)(=O)=O)C(CN1CCCCC1)C(C1=C(O)C2C=CC=CC2OC1=O)c1ccccc1 (stereo not drawn) | – | > 100 µM | > 100 µM | 53.3 µM | > 100 µM | > 100 µM | 61.8 µM | > 100 µM | – | > 100 µM | – | – | – | – | – | – | – | – | – | –
Cc1cc(N(CCC#N)CCC#N)ccc1/C=C(\NC(=O)/C=C/c1ccccc1)C(=O)N=[N+]=[N-] | > 100 µM | > 100 µM | > 100 µM | > 100 µM | > 100 µM | > 100 µM | – | > 100 µM | > 100 µM | > 100 µM | – | – | – | – | – | – | – | – | – | –
C/C(CN1C(=O)c2ccccc2C1=O)=N\NS(=O)(=O)c1ccc2ccccc2c1 | > 100 µM | > 100 µM | > 100 µM | > 100 µM | > 100 µM | > 100 µM | > 100 µM | > 100 µM | > 100 µM | > 100 µM | – | – | – | – | – | – | – | – | – | –
O=C(CCc1nnc2s/c(=C\c3ccc([N+](=O)[O-])cc3)c(=O)n12)Nc1ccc(Cl)c(Cl)c1 | 53.9 µM | 52.8 µM | 63.9 µM | 44.3 µM | 71.7 µM | > 100 µM | – | > 100 µM | 33.4 µM | 32.3 µM | – | – | – | – | – | – | – | – | – | –
NC(N)NCCCc1cn2c(n1)C1CCCN1C(=O)C2Cc1ccccc1 (stereo not drawn) | > 100 µM | > 100 µM | > 100 µM | – | > 100 µM | > 100 µM | – | > 100 µM | > 100 µM | > 100 µM | – | – | – | – | – | – | – | – | – | –
O=P1(NCCCl)OCCCN1CCCl (stereo not drawn) | 427 µM | 451 µM | 437 µM | 381 µM | 448 µM | 421 µM | > 500 µM | 429 µM | 438 µM | 360 µM | – | – | – | – | – | – | – | – | – | –
CC(C)(CN1CCCCC1)C(=O)/C=C/c1ccccc1 | 27.9 µM | 80.9 µM | 42.3 µM | – | 36.4 µM | 46.8 µM | – | 25.8 µM | 42 µM | 26.8 µM | – | – | – | – | – | – | – | – | – | –
O=C1C2C3CC4C5C3C1C5C1(SCCS1)C42 (stereo not drawn) | > 100 µM | > 100 µM | > 100 µM | > 100 µM | – | > 100 µM | > 100 µM | > 100 µM | > 100 µM | > 100 µM | – | – | – | – | – | – | – | – | – | –
CCN(CC)CC(=O)NC1c2ccccc2Oc2ccccc21 | > 100 µM | > 100 µM | > 100 µM | > 100 µM | > 100 µM | > 100 µM | > 100 µM | > 100 µM | > 100 µM | – | – | – | – | – | – | – | – | – | – | –
C[C@@H]1C(=O)CC2C(C)(C)CCC[C@]2(C)[C@@]12CC[C@]1(C=COC1)O2 (stereo partly drawn) | > 100 µM | > 100 µM | 38 µM | 42.3 µM | > 100 µM | – | 59 µM | – | > 100 µM | 50 µM | – | – | – | – | – | – | – | – | – | –
CS(=O)(=O)OCCN(CCOS(C)(=O)=O)c1ccc(C=Nc2ccc(-c3csc(COc4ccccc4)n3)cc2)cc1 | 7.59 µM | 66.4 µM | 18.7 µM | 16.2 µM | 23.6 µM | 28.3 µM | 15.5 µM | 23.9 µM | 23.4 µM | 0.868 µM | – | – | – | – | – | – | – | – | – | –

— PubChem BioAssay (NCI)
